The values below come from article PMC4876372 (Scientific Reports, 2016).

For data set [1], the target named is T1, His-tagged human recombinant ITPA protein (Homo sapiens, UniProt Q9BY32).
T1 construct: His; purchased ProSpec
Description: ITPA enzyme assay. In kind it is biochemical. Conditions: at 100 μM. On the procedure: (§1) Likewise, the enzymatic activities of ITPA and DCTPP1 were measured using a PPiLight Inorganic Pyrophosphate Assay kit. For the ITPA enzyme assay, we used ITPA assay buffer (100 mM Tris-acetate, 50 mM Mg(OAc)2, 0.005% Tween-20, and 2 mM DTT, pH 7.5), His-tagged human recombinant ITPA protein (5 nM; ProSpec), and ITP (25 μM). For the DCTPP1 enzyme assay, we used DCTPP1 assay buffer (100 mM Tris-acetate, 100 mM NaCl, 10 mM Mg(OAc)2, 0.005% Tween-20, and 2 mM DTT, pH 7.5), His-tagged human recombinant DCTPP1 protein (50 nM; ATGen), and deoxycytidine triphosphate (dCTP; 50 μM).
(§2) To exclude false positive compounds that inhibit PPi detection, the effects of test compounds on 10 μM Na4P2O7-induced luciferase activity were examined.

Data set [2] deals with T2, His-tagged human recombinant DCTPP1 protein (Homo sapiens, UniProt Q9H773).
T2 construct: His; purchased ATGen
T2 sequence (Q9H773 1-170): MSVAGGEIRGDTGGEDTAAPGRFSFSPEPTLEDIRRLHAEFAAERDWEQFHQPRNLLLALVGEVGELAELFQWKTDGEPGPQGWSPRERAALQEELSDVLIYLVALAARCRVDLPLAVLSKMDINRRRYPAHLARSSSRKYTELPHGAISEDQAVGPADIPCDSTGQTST
Description: DCTPP1 enzyme assay. It is filed as biochemical. Conditions: at 100 μM. On the procedure: as §1, §2

The nature of data set [3]: Cell death assay (WST-8) in HeLa cells. In kind it is cell-based, human. The settings on record: human, HeLa cells (cervical cancer); 72 h, WST-8; read-out: cytotoxicity IC50 against HeLa cells. On the procedure: (§3) Human cancer cell lines HeLa (cervical cancer), MIA PaCa-2 (pancreatic cancer), A431 (epidermoid carcinoma), and human embryonic kidney derived cell line HEK293T were cultured in Dulbecco’s Modified Eagle’s Medium (DMEM; Invitrogen) containing 10% fetal bovine serum (FBS), penicillin G (50 units/mL) and streptomycin (50 µg/mL). Human cancer cell lines Panc-1 (pancreatic cancer) and Jurkat (T cell lymphoma) were cultured in RPMI (Gibco) containing 10% FBS, penicillin G (50 units/mL) and streptomycin (50 µg/mL). Human osteosarcoma cell line MG-63, mouse embryonic fibroblast NIH3T3 cells and its transformant NIH3T3/KRAS cells1 were cultured in DMEM (Sigma-Aldrich) containing 10% calf serum, glutamine (0.3 g/L), penicillin G (50 units/mL), and streptomycin (50 µg/mL). All cell lines were incubated at 37 °C in a humidified atmosphere containing 5% CO2.
The cells were seeded in 96-well plates, cultured overnight, and treated with test compounds for the indicated time. Subsequently, cell viability was measured by the WST-8 assay, using Cell Count Reagent SF (Nacalai Tesque) according to the manufacturer ’s instructions, with the measurement of absorbance set at 450 nm on the ARVO SX 1420 Multilabel Counter (Wallac). […]
For orientation: Formazan colour is commonly taken as a measure of viable cells.

In data set [4] the target is T3, MTH1 in intact HeLa cells (Homo sapiens, UniProt P36639).
T3 construct: endogenous in cells; host or cells: HeLa
Description: Target engagement assay (CETSA). In kind it is cell-based. Conditions: 300 μM, 1 h. Here is the method: To analyze the interaction between small-molecule ligands and their target proteins in intact cells, a cellular thermal shift assay (CETSA) was performed as described previously with minor modifications. […] After treatment, cells were collected with trypsin and resuspended in Tris-buffered saline (TBS). The cell suspension was aliquoted into four polymerase chain reaction (PCR) tubes and heated at 45, 50, 55, or 60 °C for 5 min. Subsequently, cells were lysed by three repeated freeze-thaw cycles using liquid nitrogen. Precipitated proteins were separated from the soluble fraction by centrifugation at 17,000 × g for 20 min. Soluble proteins collected in the supernatant were subjected to sodium dodecyl sulfate polyacrylamide gel electrophoresis (SDS-PAGE) and transferred to a polyvinylidene difluoride (PVDF) membrane (Millipore) for western blot analysis. […] Santa Cruz Biotechnology) and a horseradish peroxidase–labeled secondary antibody (Vector Laboratories) in sequence. They were then visualized with Fusion Solo S (Vilber Lourmat) using a Super Signal West Pico Chemiluminescence Substrate (Pierce). After detection of MTH1 by western blot, proteins on the membrane were visualized by staining with Coomassie brilliant blue (CBB).

Data set [5] concerns 8-oxo-dG levels in DNA of HeLa cells. Description: 8-oxo-dG immunofluorescence. It is filed as cell-based, human. The settings on record: 20 h, NPD compounds 100 μM, TH287 3 and 10 μM. On the procedure:
as §3, with “CO2. […]” for “CO2.”
The HeLa cells were seeded on glass coverslips in 12-well plates, cultured overnight, and treated with test compounds for the indicated time. For 8-oxo-dG, cells were fixed sequentially in 3.7% formalin for 10 min and methanol at -20 °C for 10 min, and then permeabilized in 0.5% Triton X-100 in PBS at room temperature for 5 min. After blocking with 0.5% BSA in PBS at room temperature for 30 min, cells were incubated sequentially with a primary antibody against 8-oxo-dG (5 µg/mL, MOG-020; Japan Institute for the Control of Aging) and with Alexa Fluor 488-conjugated secondary antibody (1:400, Life Technologies) under the same conditions. After a quick rinse in PBS, DNA was counterstained with 0.1 µg/mL 4′,6-diamidino-2-phenylindole (DAPI) in PBS at room temperature for 10 min. Images were analyzed with a fluorescence microscope (BX60, Olympus).

In data set [6] the test system is HeLa cells. Description: Cell cycle analysis (propidium iodide flow cytometry). In kind it is cell-based, human. The settings on record: 24 h, HeLa cells (Ctrl 0.9%). On the procedure:
The HeLa cells were seeded in 12-well plates and treated with test compounds for the indicated time. Cells were harvested, washed with PBS, and incubated in propidium iodide (PI) solution containing 50 µg/mL propidium iodide, 0.1% sodium citrate, 0.2% Nonidet P-40, and 0.25 µg/mL RNase A (Nacalai Tesque) for 30 mi n in the dark.
Cellular DNA content was analyzed by fluorescence-activated cell sorting using a Cytomics FC500 (Beckman Coulter). […]
A general note: In flow cytometry, cells or beads pass a laser one at a time.

What is called IC50 is the point on the concentration scale where inhibition reaches its midpoint.

With `Nc1nc(NCCc2ccccc2)c2nc[nH]c2n1` [NPD9948], the “effect on enzymatic activity of ITPA” value in data set [1] is on record as “did not affect”. Moreover, the “effect on enzymatic activity of DCTPP1” value in data set [2] was “did not affect”. Also, the IC50 at 72 h in data set [3] is 35 µM. In addition, the “thermal stabilization of cellular MTH1” value in data set [4] is “considerably stabilized”. The “accumulation of 8-oxo-dG” value in data set [5] is on record as “did not induce the significant accumulation”. The sub-G1 cell population in data set [6] (100 μM) turned out to be 8.2%; in data set [6] (200 μM), 19%.
For `CC1(C)CC2CC(C)(CN2c2ncnc3[nH]cnc23)C1` (centres unmarked) [NPD7155], the “effect on enzymatic activity of ITPA” value in data set [1] is recorded as “did not affect”. For the same compound, the “effect on enzymatic activity of DCTPP1” value in data set [2] was “did not affect”. Moreover, the IC50 at 72 h in data set [3] turned out to be 65 µM. In data set [4], the “thermal stabilization of cellular MTH1” value is reported as “considerably stabilized”. Also, the “accumulation of 8-oxo-dG” value in data set [5] was “did not induce the significant accumulation”. Also, the values for the sub-G1 cell population in data set [6] (100 μM) and in data set [6] (200 μM) were 4.9% and 9.0%, respectively.
